Measured values taken from PubChem BioAssay (NCI).
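96-well plates; 48 h exposure; 5 concentrations. Endpoints by linear interpolation between flanking doses. Not reached: highest tested concentration assigned. GI50 = concentration required for 50% inhibition of growth. TGI denotes the concentration required for complete inhibition of growth.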

Tests used:
Test in all cases: NCI tumour cell line growth inhibition, 48 h
PC-3 prostate = tested on: PC-3 prostate
COLO 205 colon = tested on: COLO 205 colon
NCI-H522 lung = tested on: NCI-H522 lung
LOX IMVI melanoma = tested on: LOX IMVI melanoma
MCF7 breast = tested on: MCF7 breast
SF-295 CNS = tested on: SF-295 CNS
SF-539 CNS = tested on: SF-539 CNS
SW-620 colon = tested on: SW-620 colon
DU-145 prostate = tested on: DU-145 prostate
OVCAR-4 ovarian = tested on: OVCAR-4 ovarian

Row | SMILES | GI50 (PC-3 prostate) | TGI (PC-3 prostate) | GI50 (COLO 205 colon) | TGI (COLO 205 colon) | GI50 (NCI-H522 lung) | TGI (NCI-H522 lung) | GI50 (LOX IMVI melanoma) | TGI (LOX IMVI melanoma) | GI50 (MCF7 breast) | TGI (MCF7 breast) | GI50 (SF-295 CNS) | TGI (SF-295 CNS) | GI50 (SF-539 CNS) | TGI (SF-539 CNS) | GI50 (SW-620 colon) | TGI (SW-620 colon) | GI50 (DU-145 prostate) | TGI (DU-145 prostate) | GI50 (OVCAR-4 ovarian) | TGI (OVCAR-4 ovarian)
1 | O=C1c2ccccc2C(=Cc2ccccc2)c2ccccc21 | 2.26 µM | 15.8 µM | 2.2 µM | 5.14 µM | 1.55 µM | 5.63 µM | 2.32 µM | 10.7 µM | 1.44 µM | 12 µM | 2.59 µM | 13.6 µM | 3.57 µM | 11.9 µM | 2.43 µM | 13.8 µM | 2.44 µM | 6.94 µM | 4.31 µM | 24.4 µM
2 | C/C(=C\C1=C(Cl)C(=O)c2ccccc2C1=O)C(=O)O | 17.3 µM | 31.1 µM | 18.7 µM | 34 µM | 11.9 µM | 26.9 µM | 17.6 µM | 38.6 µM | 17.6 µM | 43.3 µM | 19 µM | 33.4 µM | 17.7 µM | 31.9 µM | 21.7 µM | 37.4 µM | 17.6 µM | 34.6 µM | 19.9 µM | 36.3 µM
3 | C=C(C)C1CC2(C)C(C)CC(OC(=O)/C(C)=C\C)CC2C(OC(=O)/C(C)=C\C)C1O (centres undefined) | – | > 100 µM | – | 48.4 µM | – | > 100 µM | – | > 100 µM | – | > 100 µM | – | – | – | > 100 µM | – | > 100 µM | – | > 100 µM | – | > 100 µM
4 | Cn1cc(C2=C(c3cccnc3)C(=O)NC2=O)c2ccccc21 | 17.1 µM | > 25 µM | > 18.3 µM | > 25 µM | > 25 µM | > 25 µM | > 20.9 µM | > 25 µM | 8.45 µM | > 25 µM | 8.13 µM | > 25 µM | 11.4 µM | > 25 µM | > 25 µM | > 25 µM | > 25 µM | > 25 µM | > 22.2 µM | > 25 µM
5 | Cc1cc(C2=NNC(=O)Cc3cc4c(cc32)OCCO4)cc(C)c1N | 2.73 µM | > 100 µM | 1.55 µM | 11.2 µM | 1.24 µM | 6.19 µM | 3.18 µM | > 100 µM | 1.13 µM | > 100 µM | 0.47 µM | 2.87 µM | 2.73 µM | 8.91 µM | 0.965 µM | > 100 µM | 3.84 µM | > 100 µM | 6.4 µM | > 100 µM
6 | O=S(=O)(O)c1ccc(-c2nnc(-c3ccccn3)nc2-c2ccc(S(=O)(=O)O)o2)o1 | – | > 100 µM | – | > 100 µM | – | > 100 µM | – | > 100 µM | – | > 100 µM | – | > 100 µM | – | > 100 µM | – | > 100 µM | – | > 100 µM | – | > 100 µM
7 | CC(=O)OCC(=O)O[C@@H]1C[C@]2(C(C)C)O[C@@]1(C)[C@@H]1CC[C@@H](C)[C@H]1[C@@H]2OC(=O)/C=C/c1ccccc1 | 7.88 µM | > 100 µM | 24.2 µM | 84.6 µM | 17.9 µM | 47.8 µM | 15.5 µM | 32.7 µM | 22.6 µM | > 100 µM | 17 µM | 43.9 µM | 28.2 µM | > 100 µM | 31 µM | > 100 µM | 18.4 µM | 40.6 µM | 22.7 µM | > 100 µM
